# In patent US6812028B1, “Embryogenesis and plant regeneration from microspores” (University of Guelph, priority 1999, dated 2004):
# How the values were obtained:
# [1] = tested on: wheat isolated microspores cv Pavon 79; experiment: Response of wheat isolated microspore cultures to AGP levels in MMS4 medium, with and without ovaries; type: cell-based; conditions: MMS4, cv Pavon 79
# Method: (§1) The effect of AGP on embryogenesis and plant regeneration was assessed in wheat microspores which were isolated from genotype Pavon 79 according to the method of the present invention. AGP levels of 0, 1, 5, and 10 mg/liter were tested. [table] […] Additionally, the data illustrates the presence of ovaries in co-culture enhanced embryogenesis and plant regeneration. Only at 10 mg/liter of AGP was significant embryogenesis observed in the absence of ovary co-culture. FIG. 5(a) illustrates the comparative response of wheat microspores to the presence or absence of wheat ovaries and 0 or 10 mg/L AGP. FIG. 6 illustrates the good embryo structure developed in wheat after 4 weeks on medium with ovaries and AGP.
# [2] = tested on: wheat microspores cv Pavon 79; experiment: Regeneration of plants from wheat microspores with AGP in induction media MMS4; type: cell-based; conditions: for # of plants Albino / # of plants Total / # of plants green / % of green plants / % of regen.: 250 embryos transferred to regeneration medium; for Total # of embryos: induction media MMS4, cv Pavon 79
# Method: as §1, with “tested.” for “tested. [table]”
substance,measurement,setting,value
arabinogalactan protein [AGP],# alive and dividing d 10,"[1]; AGP 1 mg/L, ovary +",22605
same,# alive not dividing d 10,"[1]; AGP 1 mg/L, ovary +",2805
same,# dead microspores d 10,"[1]; AGP 1 mg/L, ovary +",47175
same,# embryos 30 days,"[1]; AGP 1 mg/L, ovary +",2130
same,# multicell burst d 10,"[1]; AGP 1 mg/L, ovary +",1072
same,# multicellular d 10,"[1]; AGP 1 mg/L, ovary +",18500
same,# alive and dividing d 10,"[1]; AGP 1 mg/L, ovary −",22125
same,# alive not dividing d 10,"[1]; AGP 1 mg/L, ovary −",5650
same,# dead microspores d 10,"[1]; AGP 1 mg/L, ovary −",47558
same,# embryos 30 days,"[1]; AGP 1 mg/L, ovary −",0
same,# multicell burst d 10,"[1]; AGP 1 mg/L, ovary −",400
same,# multicellular d 10,"[1]; AGP 1 mg/L, ovary −",13750
same,# alive and dividing d 10,"[1]; AGP 5 mg/L, ovary +",18272
same,# alive not dividing d 10,"[1]; AGP 5 mg/L, ovary +",7600
same,# dead microspores d 10,"[1]; AGP 5 mg/L, ovary +",30250
same,# embryos 30 days,"[1]; AGP 5 mg/L, ovary +",3393
same,# multicell burst d 10,"[1]; AGP 5 mg/L, ovary +",7080
same,# multicellular d 10,"[1]; AGP 5 mg/L, ovary +",39078
same,# alive and dividing d 10,"[1]; AGP 5 mg/L, ovary −",26152
same,# alive not dividing d 10,"[1]; AGP 5 mg/L, ovary −",8275
same,# dead microspores d 10,"[1]; AGP 5 mg/L, ovary −",34500
same,# embryos 30 days,"[1]; AGP 5 mg/L, ovary −",0
same,# multicell burst d 10,"[1]; AGP 5 mg/L, ovary −",742
same,# multicellular d 10,"[1]; AGP 5 mg/L, ovary −",28345
same,# alive and dividing d 10,"[1]; AGP 10 mg/L, ovary +",8500
same,# alive not dividing d 10,"[1]; AGP 10 mg/L, ovary +",0
same,# dead microspores d 10,"[1]; AGP 10 mg/L, ovary +",23550
same,# embryos 30 days,"[1]; AGP 10 mg/L, ovary +",4250
same,# multicell burst d 10,"[1]; AGP 10 mg/L, ovary +",15452
same,# multicellular d 10,"[1]; AGP 10 mg/L, ovary +",68000
same,# alive and dividing d 10,"[1]; AGP 10 mg/L, ovary −",33275
same,# alive not dividing d 10,"[1]; AGP 10 mg/L, ovary −",6250
same,# dead microspores d 10,"[1]; AGP 10 mg/L, ovary −",24650
same,# embryos 30 days,"[1]; AGP 10 mg/L, ovary −",50
same,# multicell burst d 10,"[1]; AGP 10 mg/L, ovary −",4620
same,# multicellular d 10,"[1]; AGP 10 mg/L, ovary −",41950
same,# of plants Albino,[2]; AGP 1 mg/L with ovaries,70
same,# of plants Total,[2]; AGP 1 mg/L with ovaries,118
same,# of plants green,[2]; AGP 1 mg/L with ovaries,48
same,% of green plants,[2]; AGP 1 mg/L with ovaries,41%
same,% of regen.,[2]; AGP 1 mg/L with ovaries,47%
same,Total # of embryos,[2]; AGP 1 mg/L with ovaries,2130
same,# of plants Albino,[2]; AGP 5 mg/L with ovaries,70
same,# of plants Total,[2]; AGP 5 mg/L with ovaries,120
same,# of plants green,[2]; AGP 5 mg/L with ovaries,50
same,% of green plants,[2]; AGP 5 mg/L with ovaries,42%
same,% of regen.,[2]; AGP 5 mg/L with ovaries,48%
same,Total # of embryos,[2]; AGP 5 mg/L with ovaries,3393
same,# of plants Albino,[2]; AGP 10 mg/L with ovaries,60
same,# of plants Total,[2]; AGP 10 mg/L with ovaries,189
same,# of plants green,[2]; AGP 10 mg/L with ovaries,129
same,% of green plants,[2]; AGP 10 mg/L with ovaries,68%
same,% of regen.,[2]; AGP 10 mg/L with ovaries,76%
same,Total # of embryos,[2]; AGP 10 mg/L with ovaries,4250
same,"embryogenesis, regeneration and % green plant production","[2]; addition of 10 mg/L of AGP, genotype Pavon 79",significant improvement
